Literature values, collected in patent US7179939B2, “Sodium ferric gluconate complexes and method of manufacture thereof” (priority 2004, dated 2007).

reactions associated with administration (severity) (occur at a lower rate compared to iron dextran): mild to moderate
occurrence of allergic episodes (study comparing iron dextran with sodium ferric gluconate): 3.3 allergic episodes per million doses
Substance: sodium ferric gluconate complex in sucrose
